In brackets after ≈: the same amount, converted by molar mass. Activity calls are given as the source filed them. No cut-off for these calls is given here.
Experiments:
Type in all cases: functional
[1] = tested on: Mycobacterium tuberculosis; assay: Antimicrobial activity against pyrazinamide-resistant Mycobacterium tuberculosis BCG(SI) after 16 to 20 hrs by two-fold microdilution broth method
[2] = tested on: Mycobacterium tuberculosis; assay: Antimicrobial activity against rifampicin-resistant Mycobacterium tuberculosis Who-185 after 16 to 20 hrs by two-fold microdilution broth method
[3] = tested on: Mycobacterium tuberculosis; assay: Antimicrobial activity against isoniazid-resistant Mycobacterium tuberculosis Who-185 after 16 to 20 hrs by two-fold microdilution broth method

Row | Structure (SMILES) | MIC [1] | MIC [2] [µg/mL] | MIC [3] [µg/mL]
1 | Nc1ncnc2c1ncn2[C@@H]1O[C@H](COP(=O)(O)OCCCCC[C@@H]2SC[C@@H]3NC(=O)N[C@@H]32)[C@@H](O)[C@H]1O | inactive | 2.5 (≈ 4.47 µM) | 0.5 (≈ 0.894 µM)
2 | Nc1ncnc2c1ncn2[C@@H]1O[C@H](CNS(=O)(=O)NC(=O)CCCC[C@@H]2SC[C@@H]3NC(=O)N[C@@H]32)[C@@H](O)[C@H]1O | 0.1 µg/mL (≈ 0.175 µM) | 0.1 (≈ 0.175 µM) | 0.1 (≈ 0.175 µM)

Reference: ChEMBL document CHEMBL3421591, “Improved Synthesis of Biotinol-5'-AMP: Implications for Antibacterial Discovery” (ACS Med Chem Lett, 2015)
